Patent US12474342B2, “Methods for treating cancer and the use of biomarkers as a predictor of clinical sensitivity to therapies” (CELGENE CORPORATION, priority 2016, dated 2025)
Where two headings read alike, the source gives them in different places.

Tests used:
[1] = system: MV-4-11 cells; test: Anti-proliferation 72-hour CTG assay, MV-4-11; type: cell-based; details: Homo sapiens, MV4-11; MV-4-11, 72-hour CTG assay; read-out: IC50 of the anti-proliferative effect
Experimental: (§1) A plethora of AML cell lines were treated with serial dilutions of Compound D. IC50 value of the anti-proliferation effect of Compound D (as determined in 72-hour CTG assays) in each cell line is summarized in Table 1.

[2] = system: U-937 cells; test: Anti-proliferation CTG assay, U-937; type: cell-based, human
Experimental: as §1
The effect of overexpression of GSPT1 on the anti-proliferative effect of Compound D and Compound E was determined in human histiocytic lymphoma cell line U937 and human leukemia cell line MOLM13. Treatment compounds (e.g., Compound D or Compound E) were titrated from 0.001 μM to 10 μM. Cell proliferation was measured by CellTiter-Glo cell viability assay at 48 hours after treatment. […] However, when exogenous GSPT1 was overproduced via the EF1α promoter, as shown in FIGS. 5A-5D, the anti-proliferative effect of Compound D and Compound E reduced.

[3] = system: nontumorigenic human hepatocellular cell line THLE-2; test: Anti-proliferation, THLE-2; type: cell-based; details: THLE-2 (data not shown)
[4] = system: ML-2 cells; test: Apoptosis (caspase 3/7 activation), ML-2; type: cell-based, human; details: for EC50: Homo sapiens, read-out: Compound D-induced Apoptosis EC50
[5] = system: OCI-AML2 cells; test: Apoptosis (caspase 3/7 activation), OCI-AML2; type: cell-based, human; details: for EC50: Homo sapiens, read-out: Compound D-induced Apoptosis EC50
[6] = system: DDIT3 (CHOP); test: DDIT3 (CHOP) mRNA, quantitative PCR, KG-1; type: cell-based, human; details: KG-1, 100 nM Compound D or greater
Experimental: Compound D regulates UPR stress RNAs, ATF3 and CHOP, and nonsense-mediated decay (NMD) RNAs, SRSF3 and SRSF6, in KG-1 cells in both dose- and time-dependent manners. KG-1 cells were plated in 10 cm^2 dishes and incubated overnight. The following day, KG-1 cells were treated with a 6-point dose response (0, 3, 10, 30, 100, 300 nM) of Compound D and incubated for 2, 4, 8, and 20 hours. Cells were removed from dishes and cell pellets were prepared for RNA isolation (Qiagen RNA isolation kit). Total RNA was quantitated using NanoDrop spectrophotometer and cDNA was reversely transcribed using 1 μg total RNA. Quantitative PCR was performed in replicates for each sample using primer sets for ATF3, CHOP, and both NMD and normal transcripts of SRSF3 and SRSF6. Data was doubly normalized to the 18S housekeeping gene and 2 hour DMSO control. Normalized RNA expression (y-axis) versus drug concentration in nM (x-axis) for each time point was plotted. SRSF3-1 NMD and SRSF6-1 NMD depict amplification of NMD transcript for SRSF3 and SRSF6, respectively. SRSF3-3 Normal and SRSF6-3 Normal depict amplification of normal transcript for SRSF3 and SRSF6 genes, respectively. […] FIGS. 29A-29F show effects of Compound D treatment on UPR and NMD pathways in KG-1 cells. […] Additionally, 100 nM Compound D or greater induced the mRNA levels of ATF3 and DDIT3 (CHOP) approximately 100-fold and 10-fold, respectively. […]

[7] = molecular target: T1, GSPT1 (Homo sapiens, UniProt P15170+Q96SW2); test: GSPT1 degradation in NB4 cell line; type: cell-based; parameters: endogenous in cells; details: NB4 cell line
[8] = molecular target: T1, GSPT1; test: GSPT1 protein reduction, western analysis, Kasumi-1; type: cell-based; parameters: reduction in GSPT1 protein level was evaluated in human normal PBMCs; endogenous in cells; host or cells: primary PBMCs from normal donors (ID 4328, 4379) and AML patients (ID 11SH, 09P6)
Experimental: The time course of the reduction in GSPT1 by Compound D also was studied for up to 48 hours. The progressive degradation of GSPT1 over the course of 1 to 20 hours was evident in the presence of all concentrations of Compound D studied from 3 to 300 nM in HNT-34, HL-60, and ML-2 cells, with little GSPT1 remaining by 20 hours at 100 or 300 nM Compound D in HNT-34 or HL-60 cells (FIG. 34 and FIG. 35C). Time-dependent reduction in GSPT1 was also observed in KG-1 and OCI-AML2 cells at 3 to 1000 nM Compound D, with little GSPT1 remaining in KG-1 cells at 100 to 300 nM at 24 hours or in OCI-AML2 cells at 300 and 1000 nM at 24 hours (FIG. 35D). Loss of GSPT1 occurred more slowly in Kasumi-1, AML-193, and […] cells. […] A positive association (r^2=0.50; […]

T1 sequence (P15170 1-637 isoform P15170-3): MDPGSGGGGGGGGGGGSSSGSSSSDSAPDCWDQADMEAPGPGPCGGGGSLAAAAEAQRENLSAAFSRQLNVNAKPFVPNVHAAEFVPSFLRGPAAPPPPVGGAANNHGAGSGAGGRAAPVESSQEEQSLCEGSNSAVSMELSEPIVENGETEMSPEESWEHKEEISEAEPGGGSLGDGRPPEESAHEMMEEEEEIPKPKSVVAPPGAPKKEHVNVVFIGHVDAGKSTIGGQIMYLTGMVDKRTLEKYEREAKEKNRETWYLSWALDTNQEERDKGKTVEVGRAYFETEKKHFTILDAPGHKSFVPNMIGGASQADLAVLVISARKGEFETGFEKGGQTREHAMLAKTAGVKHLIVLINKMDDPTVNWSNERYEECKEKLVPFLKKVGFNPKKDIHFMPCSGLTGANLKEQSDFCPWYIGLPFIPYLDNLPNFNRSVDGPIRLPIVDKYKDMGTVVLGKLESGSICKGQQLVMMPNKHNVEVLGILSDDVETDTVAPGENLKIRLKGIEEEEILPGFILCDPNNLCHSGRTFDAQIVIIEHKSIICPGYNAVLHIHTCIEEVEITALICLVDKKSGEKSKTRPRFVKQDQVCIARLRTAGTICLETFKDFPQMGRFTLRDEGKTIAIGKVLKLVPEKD
T1 sequence (Q96SW2 whole entry): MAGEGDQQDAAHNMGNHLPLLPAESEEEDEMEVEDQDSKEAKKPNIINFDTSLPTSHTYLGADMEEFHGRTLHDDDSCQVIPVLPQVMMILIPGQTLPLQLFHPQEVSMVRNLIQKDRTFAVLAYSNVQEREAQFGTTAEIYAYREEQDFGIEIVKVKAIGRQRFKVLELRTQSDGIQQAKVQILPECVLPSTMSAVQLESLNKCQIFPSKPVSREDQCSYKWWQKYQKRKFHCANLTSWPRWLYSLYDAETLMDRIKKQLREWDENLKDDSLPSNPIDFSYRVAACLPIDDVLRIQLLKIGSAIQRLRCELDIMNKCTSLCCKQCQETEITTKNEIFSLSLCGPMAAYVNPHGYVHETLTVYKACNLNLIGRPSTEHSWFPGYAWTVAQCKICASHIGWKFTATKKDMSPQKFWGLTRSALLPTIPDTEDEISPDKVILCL
T1 sequence (Q16531 whole entry partner): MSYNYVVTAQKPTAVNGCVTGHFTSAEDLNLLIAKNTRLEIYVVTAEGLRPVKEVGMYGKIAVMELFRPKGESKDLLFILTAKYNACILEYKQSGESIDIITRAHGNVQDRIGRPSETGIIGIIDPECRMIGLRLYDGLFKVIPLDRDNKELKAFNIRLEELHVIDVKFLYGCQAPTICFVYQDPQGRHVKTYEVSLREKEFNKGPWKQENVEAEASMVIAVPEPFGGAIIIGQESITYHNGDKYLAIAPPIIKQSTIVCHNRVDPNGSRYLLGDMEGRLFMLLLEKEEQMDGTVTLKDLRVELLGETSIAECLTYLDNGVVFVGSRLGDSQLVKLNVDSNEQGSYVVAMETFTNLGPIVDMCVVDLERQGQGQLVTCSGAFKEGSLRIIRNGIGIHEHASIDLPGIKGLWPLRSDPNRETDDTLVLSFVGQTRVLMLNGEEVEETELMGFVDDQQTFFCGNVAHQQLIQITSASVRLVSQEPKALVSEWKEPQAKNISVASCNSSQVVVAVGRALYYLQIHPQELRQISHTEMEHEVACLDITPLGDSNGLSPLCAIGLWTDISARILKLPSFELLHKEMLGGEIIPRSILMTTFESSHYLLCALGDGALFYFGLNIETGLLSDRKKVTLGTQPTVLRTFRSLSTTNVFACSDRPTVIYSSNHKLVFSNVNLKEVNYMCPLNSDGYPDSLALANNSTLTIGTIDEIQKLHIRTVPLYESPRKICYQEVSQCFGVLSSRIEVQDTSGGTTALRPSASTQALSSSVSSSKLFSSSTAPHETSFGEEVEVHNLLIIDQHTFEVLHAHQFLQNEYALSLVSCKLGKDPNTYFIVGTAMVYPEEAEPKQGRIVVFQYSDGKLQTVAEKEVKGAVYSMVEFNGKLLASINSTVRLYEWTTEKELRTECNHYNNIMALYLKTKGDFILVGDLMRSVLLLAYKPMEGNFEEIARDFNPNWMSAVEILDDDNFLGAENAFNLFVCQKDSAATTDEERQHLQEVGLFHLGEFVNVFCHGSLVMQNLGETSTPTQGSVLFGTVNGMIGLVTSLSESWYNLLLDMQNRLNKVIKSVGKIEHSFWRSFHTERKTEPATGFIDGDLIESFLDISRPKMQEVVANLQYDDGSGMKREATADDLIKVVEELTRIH

Compound: O=C1CCC(N2Cc3cc(CNC(=O)C(F)(F)c4ccc(Cl)cc4)ccc3C2=O)C(=O)N1 (stereo not shown) [Compound D, 2-(4-chlorophenyl)-N-((2-(2,6-dioxopiperidin-3-yl)-1-oxoisoindolin-5-yl)methyl)-2,2-difluoroacetamide]
- IC50 [1]: 29 nM
- IC50 ([2]; Homo sapiens, U-937, 72-hour CTG assay, read-out: IC50 of the anti-proliferative effect): 74 nM
- anti-proliferative effect ([2]; U937 CRBN -/- cells, 48 hours): completely abolished
- cell proliferation (CellTiter-Glo) ([2]; U937 parental cells, 0.001 μM to 10 μM, 48 hours): inhibited cell proliferation
- IC50 [3]: ~10000 nM
- EC50 ([4]; ML-2, 24 hr): 62 nM
- EC50 ([4]; ML-2, 48 hr): 31 nM
- EC50 ([4]; ML-2, 72 hr): 21 nM
- EC50 ([4]; ML-2, 96 hr): 25 nM
- Average Percent Increase in Apoptosis at 123 nM Compound D, Apoptosis (12 hr) ([4]; ML-2, 123 nM, 12 hr): 2%
- Average Percent Increase in Apoptosis at 123 nM Compound D, Apoptosis (24 hr) ([4]; ML-2, 123 nM, 24 hr): 17%
- Average Percent Increase in Apoptosis at 123 nM Compound D, Apoptosis (48 hr) ([4]; ML-2, 123 nM, 48 hr): 51%
- EC50 ([5]; OCI-AML2, 48 hr): 81 nM
- EC50 ([5]; OCI-AML2, 72 hr): 41 nM
- EC50 ([5]; OCI-AML2, 96 hr): 38 nM
- Average Percent Increase in Apoptosis at 123 nM Compound D, Apoptosis (12 hr) ([5]; OCI-AML2, 123 nM, 12 hr): 0%
- Average Percent Increase in Apoptosis at 123 nM Compound D, Apoptosis (24 hr) ([5]; OCI-AML2, 123 nM, 24 hr): 3%
- Average Percent Increase in Apoptosis at 123 nM Compound D, Apoptosis (48 hr) ([5]; OCI-AML2, 123 nM, 48 hr): 33%
- induction of DDIT3 (CHOP) mRNA level [6]: ~10 fold
- effect on GSPT1 level [7]: induced degradation
- Percent Reduction at 100 nM Compound D GSPTI (8 hr) ([8]; Kasumi-1, 100 nM, 8 hr): 64%
- GSPT1 reduction ([8]; Kasumi-1, 300 nM Compound D, 8 hours): 51%
